Measurements published in PubChem BioAssay AID248 (DTP/NCI, 2004).
Several values for one entry are separate records, joined by “and”; a condition that tells them apart may be missing. Equal entries are not always repeated. Inconclusive results and toxic doses are left out. Cut-off read from the data, not from the text of the source: active = T/C of 150% or more; inactive = T/C below 125%.

System: L1210 leukemia ip in BDF1 mice, survival T/C
Assay: NCI In Vivo Anticancer Drug Screen. Data for tumor model L1210 Leukemia (intraperitoneal) in B6D2F1 (BDF1) mice
Settings: endpoint: mean survival time, higher = longer survival
Method in brief: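 In this screen, tumor-bearing mice given compound are compared to those given vehicle, and their survival values are reported as a treated-to-control quotient.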

Measured: T/C

COC(=O)[C@@H](O)[C@](O)(CCC(C)C)C(=O)O[C@@H]1C(OC)=C[C@]23CCCN2CCc2cc4c(cc2[C@H]13)OCO4
inactive: dose: 0.12 mg/kg/injection, schedule: Q03HX024 (ip), vehicle: saline 98 % of control | dose: 0.25 mg/kg/injection, schedule: Q01DX009 (ip), vehicle: saline 108 % of control | dose: 0.25 mg/kg/injection, schedule: Q03HX008 (ip), vehicle: saline 106 % of control | dose: 0.25 mg/kg/injection, schedule: Q03HX016 (ip), vehicle: saline 101 % of control | dose: 0.25 mg/kg/injection, schedule: Q03HX024 (ip), vehicle: saline 107 % of control | dose: 0.5 mg/kg/injection, schedule: Q01DX006 (iv), vehicle: saline 100 % of control | dose: 0.5 mg/kg/injection, schedule: Q01DX009 (ip), vehicle: saline 107 % of control | dose: 0.5 mg/kg/injection, schedule: Q01DX009 (oral), vehicle: saline 103 % of control | dose: 0.5 mg/kg/injection, schedule: Q01DX009 (sc), vehicle: saline 104 % of control | dose: 0.5 mg/kg/injection, schedule: Q03HX008 (ip), vehicle: saline 104 % of control | dose: 0.5 mg/kg/injection, schedule: Q03HX016 (ip), vehicle: saline 108 % of control | dose: 0.5 mg/kg/injection, schedule: Q03HX024 (ip), vehicle: saline 100 % of control | dose: 0.93 mg/kg/injection, schedule: Q01DX009 (ip), vehicle: water 106 % of control | dose: 1.0 mg/kg/injection, schedule: Q01DX006 (iv), vehicle: saline 102 % of control | dose: 1.0 mg/kg/injection, schedule: Q01DX009 (ip), vehicle: saline 115 % of control | dose: 1.0 mg/kg/injection, schedule: Q01DX009 (oral), vehicle: saline 93 % of control | dose: 1.0 mg/kg/injection, schedule: Q01DX009 (sc), vehicle: saline 104 % of control | dose: 1.0 mg/kg/injection, schedule: Q03HX008 (ip), vehicle: saline 101 % of control and 106 % of control | dose: 1.0 mg/kg/injection, schedule: Q03HX016 (ip), vehicle: saline 101 % of control and 106 % of control | dose: 1.0 mg/kg/injection, schedule: Q03HX024 (ip), vehicle: saline 100 % of control and 114 % of control | dose: 1.0 mg/kg/injection, schedule: Q04DX003 (ip), vehicle: saline 106 % of control | dose: 1.85 mg/kg/injection, schedule: Q01DX009 (ip), vehicle: water 109 % of control | dose: 1.87 mg/kg/injection, schedule: Q01DX009 (ip), vehicle: water 109 % of control | dose: 1.88 mg/kg/injection, schedule: Q01DX009 (ip), vehicle: water 114 % of control | dose: 2.0 mg/kg/injection, schedule: Q01DX001 (ip), vehicle: saline 102 % of control | dose: 2.0 mg/kg/injection, schedule: Q01DX001 (iv), vehicle: saline 102 % of control | dose: 2.0 mg/kg/injection, schedule: Q01DX001 (oral), vehicle: saline 97 % of control | dose: 2.0 mg/kg/injection, schedule: Q01DX001 (sc), vehicle: saline 104 % of control | dose: 2.0 mg/kg/injection, schedule: Q01DX006 (iv), vehicle: saline 103 % of control and 108 % of control | dose: 2.0 mg/kg/injection, schedule: Q01DX009 (ip), vehicle: saline 107 % of control and 111 % of control | dose: 2.0 mg/kg/injection, schedule: Q01DX009 (oral), vehicle: saline 108 % of control | dose: 2.0 mg/kg/injection, schedule: Q01DX009 (sc), vehicle: saline 106 % of control | dose: 2.0 mg/kg/injection, schedule: Q03HX008 (ip), vehicle: saline 105 % of control and 113 % of control | dose: 2.0 mg/kg/injection, schedule: Q03HX016 (ip), vehicle: saline 96 % of control and 107 % of control | dose: 2.0 mg/kg/injection, schedule: Q03HX024 (ip), vehicle: saline 104 % of control | dose: 2.0 mg/kg/injection, schedule: Q04DX003 (ip), vehicle: saline 106 % of control | dose: 2.0 mg/kg/injection, schedule: Q08DX002 (ip), vehicle: saline 98 % of control | dose: 4.0 mg/kg/injection, schedule: Q01DX001 (ip), vehicle: saline 106 % of control | dose: 4.0 mg/kg/injection, schedule: Q01DX001 (iv), vehicle: saline 101 % of control | dose: 4.0 mg/kg/injection, schedule: Q01DX001 (oral), vehicle: saline 100 % of control | dose: 4.0 mg/kg/injection, schedule: Q01DX001 (sc), vehicle: saline 114 % of control | dose: 4.0 mg/kg/injection, schedule: Q01DX006 (iv), vehicle: saline 103 % of control and 111 % of control | dose: 4.0 mg/kg/injection, schedule: Q01DX009 (ip), vehicle: saline 116 % of control and 124 % of control | dose: 4.0 mg/kg/injection, schedule: Q01DX009 (oral), vehicle: saline 113 % of control and 114 % of control and 120 % of control | dose: 4.0 mg/kg/injection, schedule: Q01DX009 (sc), vehicle: saline 113 % of control | dose: 4.0 mg/kg/injection, schedule: Q03HX008 (ip), vehicle: saline 114 % of control | dose: 4.0 mg/kg/injection, schedule: Q03HX016 (ip), vehicle: saline 103 % of control | dose: 4.0 mg/kg/injection, schedule: Q04DX003 (ip), vehicle: saline 110 % of control and 113 % of control | dose: 4.0 mg/kg/injection, schedule: Q08DX002 (ip), vehicle: saline 108 % of control | dose: 5.0 mg/kg/injection, schedule: Q01DX009 (ip), vehicle: saline 116 % of control | dose: 8.0 mg/kg/injection, schedule: Q01DX001 (ip), vehicle: saline 104 % of control and 105 % of control | dose: 8.0 mg/kg/injection, schedule: Q01DX001 (iv), vehicle: saline 106 % of control and 115 % of control | dose: 8.0 mg/kg/injection, schedule: Q01DX001 (oral), vehicle: saline 100 % of control | dose: 8.0 mg/kg/injection, schedule: Q01DX001 (sc), vehicle: saline 110 % of control and 115 % of control | dose: 8.0 mg/kg/injection, schedule: Q01DX006 (iv), vehicle: saline 120 % of control | dose: 8.0 mg/kg/injection, schedule: Q01DX009 (oral), vehicle: saline 114 % of control | dose: 8.0 mg/kg/injection, schedule: Q01DX009 (sc), vehicle: saline 122 % of control | dose: 8.0 mg/kg/injection, schedule: Q04DX003 (ip), vehicle: saline 101 % of control and 107 % of control | dose: 8.0 mg/kg/injection, schedule: Q08DX002 (ip), vehicle: saline 110 % of control | dose: 10.0 mg/kg/injection, schedule: Q01DX009 (ip), vehicle: saline 116 % of control | dose: 16.0 mg/kg/injection, schedule: Q01DX001 (ip), vehicle: saline 108 % of control and 112 % of control | dose: 16.0 mg/kg/injection, schedule: Q01DX001 (iv), vehicle: saline 106 % of control and 107 % of control | dose: 16.0 mg/kg/injection, schedule: Q01DX001 (oral), vehicle: saline 107 % of control and 112 % of control | dose: 16.0 mg/kg/injection, schedule: Q01DX001 (sc), vehicle: saline 111 % of control and 118 % of control | dose: 16.0 mg/kg/injection, schedule: Q01DX006 (iv), vehicle: saline 122 % of control | dose: 16.0 mg/kg/injection, schedule: Q01DX009 (sc), vehicle: saline 89 % of control | dose: 16.0 mg/kg/injection, schedule: Q04DX003 (ip), vehicle: saline 100 % of control | dose: 16.0 mg/kg/injection, schedule: Q08DX002 (ip), vehicle: saline 106 % of control and 111 % of control | dose: 20.0 mg/kg/injection, schedule: Q01DX009 (ip), vehicle: saline 115 % of control | dose: 32.0 mg/kg/injection, schedule: Q01DX001 (ip), vehicle: saline 110 % of control | dose: 32.0 mg/kg/injection, schedule: Q01DX001 (oral), vehicle: saline 108 % of control and 118 % of control | dose: 32.0 mg/kg/injection, schedule: Q04DX003 (ip), vehicle: saline 107 % of control | dose: 32.0 mg/kg/injection, schedule: Q08DX002 (ip), vehicle: saline 102 % of control

c1cc[c]2c(c1)Oc1cccc[c]1[Sn]21[c]2ccccc2Oc2cccc[c]21
inactive: dose: 100.0 mg/kg/injection, schedule: Q01DX001 (ip), vehicle: other 91 % of control | dose: 200.0 mg/kg/injection, schedule: Q01DX001 (ip), vehicle: other 96 % of control | dose: 400.0 mg/kg/injection, schedule: Q01DX001 (ip), vehicle: other 89 % of control
